Format in all cases: cell-based
For data set [1], the system named is human monocyte-derived macrophages. The data set can be described thus: Human monocyte-derived macrophage apoptosis (TUNEL staining). The procedure: (§1) Human macrophages were prepared by differentiating Ficoll gradient-separated monocytes from human blood in RPMI with 10% human serum (Gemini Bio-Products, West Sacramento, Calif.) for 10 days on Falcon PRIMARIA™ tissue culture dishes (Becton Dickinson Labware, Franklin Lakes, N.J.) without coating. Mouse thioglycolate (3%, Sigma, St. Louis, Mo.)-stimulated peritoneal macrophages were prepared from WT C57BL/6 mice (Jackson Laboratory), Fcer1a^−/− mice (congenic C57BL/6, N>8) (21), Tlr2^−/− mice (Jackson Laboratory, N16), and […] (Jackson Laboratory, C57BL/6, N8). Cells were cultured in RPMI-1640 with 10% fetal bovine serum (FBS). Human aortic SMCs and ECs were obtained from human donor aortas and subcultured at passages 2-5 in DMEM containing 10% FBS (for SMCs), or in medium 199 containing 20% FBS (for ECs).
(§2) To detect IgE-induced apoptosis, human and mouse macrophages and HuSMC were cultured on 8-well chamber slides, 96-well plates, or 6-well plate pre-coated with 1% gelatin. […]

The subject of data set [2] is human macrophages. Put plainly: IgE-induced human macrophage medium pH reduction. The procedure:
as §1, §2

For data set [3], the system named is human macrophages. Put plainly: IgE-induced human macrophage cell death (MTT assay). The conditions noted are these: human macrophages from most donors, IgE 50 μg/mL. The method, then: as §1, §2
Data set [4] deals with human macrophages. The data set can be described thus: IgE-induced human macrophage IL6 secretion. Particulars: human macrophages from most donors; IgE 50 μg/mL. The method, then:
as §1
(§3) To detect cytokine production, cells were starved in corresponding media containing 0.5% FBS overnight, then incubated for 2 days in starvation media containing IgE (50 μg/mL for macrophages; 100 μg/mL for SMCs and ECs). Mouse poorly cytokinergic monomeric IgE H1 DNP-ε-206 (50 μg/mL) (34) and highly cytokinergic aggregated IgE SPE-7 (50 μg/mL) (Sigma) with or without LPS (100 ng/mL), ox-LDL (50 μg/mL), or DNP-HSA (10 ng/mL) were used to stimulate mouse macrophages. Human IgE was obtained from Immunology Consultants Laboratory, Inc. (Newberg, Oreg., RA-80E). […]

Data set [5] deals with mouse peritoneal macrophages. Put plainly: Mouse peritoneal macrophage IL6 / MCP-1 production (ELISA, real-time PCR). The procedure:
as §1, §3
(ELISA stands for enzyme-linked immunosorbent assay.)

The test system of data set [6] is mouse peritoneal macrophages. Put plainly: Mouse peritoneal macrophage apoptosis / cell death (TUNEL, MTT). Particulars: 50-100 μM EIPA, 50 μg/mL mouse IgE (SPE-7). The method, then: as §1, §2
The test system of a further data set is HuECs. Put plainly: Cultured human EC (HuEC) stimulation: immunoblot, cell death. Particulars: IFN-γ 20 ng/mL, 50 μg lysate. The procedure:
as §1, §3

Another data set has as its system HuSMCs. Put plainly: Cultured human aortic SMC (HuSMC) stimulation: immunoblot, cytokines, cell death. Particulars: IFN-γ 20 ng/mL, 50 μg lysate. The method, then:
as §1, §3
In general terms: A western blot detects proteins with antibodies after separation by electrophoresis.

Entries after “also recorded” stand apart in the source; their conditions may differ. Residues, ends and D or L forms follow the SMILES beside them. *: point of attachment. Cbz = O=C(OCc1ccccc1)*; CH2F = FC*

For the molecule `COC(=O)C[C@H](NC(=O)[C@H](C)NC(=O)[C@@H](NC(=O)OCc1ccccc1)C(C)C)C(=O)CF` [ZVAD-FMK] (Cbz-Val-Ala-Asp(OMe)-CH2F), the “blocking of IgE-induced human macrophage apoptosis” value in data set [1] (ZVAD-FMK 20 μM, IgE 50 μg/mL) was “blocked; also recorded: efficiently blocks”.
As to `CCN(c1nc(N)c(C(=O)NC(=N)N)nc1Cl)C(C)C` [EIPA, ethylisopropylamiloride], the “blocking of IgE-induced medium color change and pH reduction” value in the data set on human macrophages [2] (10 μM EIPA, IgE 50 μg/mL) is “completely blocked”. In the data set with human macrophages [2] (EIPA alone, no IgE), the “pH change by EIPA treatment alone” value is “did not change pH”. The “blocking of IgE-induced cell death” value in the data set with human macrophages [3] was “significantly blocked”. For the same molecule, the “blocking of IgE-induced IL6 secretion” value in the data set with human macrophages [4] is listed as “significantly blocked”. Besides, the “cell death caused by EIPA alone” value in data set [1] (10 μM EIPA, same condition as LPS, 2-3 days, data not shown) is “did not cause any cell death”. Moreover, in data set [5] (50-100 μM EIPA, 50 μg/mL mouse IgE (SPE-7)), the “blocking of IgE-induced macrophage secretion of IL6” value was “blocked significantly”. For the same molecule, the “blocking of IgE-induced macrophage apoptosis” value in data set [6] is recorded as “blocked significantly”.
With “dinitrophenyl-human serum albumin [DNP-HSA]”, the “impact of antigen on SPE-7 or H1 DNP-ε-206 in macrophage activity assays” value in data set [5] (10 ng/mL DNP-HSA, pH, cell death and IL6 assays) is “no significant impact”.

B1: IFN-γ: inflammatory cytokine (protein, UniProt P01579 24-161, looked up)
Interferon gamma: QDPYVKEAENLKKYFNAGHSDVADNGTLFLGILKNWKEESDRKIMQSQIVSFYFKLFKNFKDDQSIQKSVETIKEDMNVKFFNSNKKKRDDFEKLTNYSVTDLNVQRKAIHELIQVMAELSPAAKTGKRKRSQMLFRG
For the molecule B1, the “FcεR1α expression in ECs” value in the data set on HuECs is “induced FcεR1α expression”. Also, the “FcεR1α expression in SMCs” value in the data set on HuSMCs is “induced FcεR1α expression”.

Values taken from patent US9676870B2, “Methods of treating atherosclerosis and aneurysm” (The Brigham and Women's Hospital, Inc., priority 2011, dated 2017).
